Experimental data as given in PubChem BioAssay AID256 (DTP/NCI, 2004).
Several values for one entry are separate records, joined by “and”; a condition that tells them apart may be missing. Identical values can stand only once. Toxic doses and inconclusive results are not listed. The calls were made as follows: active = survival T/C of 150% or more; inactive = T/C below 125% in these data.

Test system: CD2F1 mice, L1210 leukemia ip, survival T/C
Test: NCI In Vivo Anticancer Drug Screen. Data for tumor model L1210 Leukemia (intraperitoneal) in CD2F1 (CDF1) mice
Settings: endpoint: mean survival time, higher = longer survival
How it was run: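 Implant tumor; dose compound or vehicle; measure endpoint in both groups; report treated divided by control.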

[1] = dose: 100.0 mg/kg/injection, schedule: Q01DX009 (ip), vehicle: saline with Tween-80
[2] = dose: 200.0 mg/kg/injection, schedule: Q01DX009 (ip), vehicle: saline with Tween-80
[3] = dose: 400.0 mg/kg/injection, schedule: Q01DX009 (ip), vehicle: saline with Tween-80
[4] = dose: 100.0 mg/kg/injection, schedule: Q04DX002 (ip), vehicle: saline with Tween-80
[5] = dose: 100.0 mg/kg/injection, schedule: Q04DX003 (ip), vehicle: saline with Tween-80
[6] = dose: 200.0 mg/kg/injection, schedule: Q04DX002 (ip), vehicle: saline with Tween-80
[7] = dose: 200.0 mg/kg/injection, schedule: Q04DX003 (ip), vehicle: saline with Tween-80
[8] = dose: 400.0 mg/kg/injection, schedule: Q04DX003 (ip), vehicle: saline with Tween-80
[9] = dose: 75.0 mg/kg/injection, schedule: Q01DX001 (ip), vehicle: other
[10] = dose: 75.0 mg/kg/injection, schedule: Q01DX001 (ip), vehicle: saline
[11] = dose: 150.0 mg/kg/injection, schedule: Q01DX001 (ip), vehicle: other
[12] = dose: 150.0 mg/kg/injection, schedule: Q01DX001 (ip), vehicle: saline
[13] = dose: 50.0 mg/kg/injection, schedule: Q04DX002 (ip), vehicle: saline with Tween-80
[14] = dose: 100.0 mg/kg/injection, schedule: Q01DX001 (ip), vehicle: saline with Tween-80
[15] = dose: 200.0 mg/kg/injection, schedule: Q01DX001 (ip), vehicle: saline with Tween-80
[16] = dose: 400.0 mg/kg/injection, schedule: Q01DX001 (ip), vehicle: saline with Tween-80
[17] = dose: 100.0 mg/kg/injection, schedule: Q04DX003 (ip), vehicle: Klucel (hydroxypropylcellulose) (HPC)
[18] = dose: 200.0 mg/kg/injection, schedule: Q04DX003 (ip), vehicle: Klucel (hydroxypropylcellulose) (HPC)
[19] = dose: 400.0 mg/kg/injection, schedule: Q04DX003 (ip), vehicle: Klucel (hydroxypropylcellulose) (HPC)
[20] = dose: 25.0 mg/kg/injection, schedule: Q01DX009 (ip), vehicle: saline with Tween-80
[21] = dose: 50.0 mg/kg/injection, schedule: Q01DX009 (ip), vehicle: saline with Tween-80

Measured: T/C

O=C(NCC(S)c1ccc(Cl)cc1)C(F)(F)F (stereo not given)
inactive: dose: 12.5 mg/kg/injection, schedule: Q04DX003 (ip), vehicle: saline with Tween-80 96 % of control | dose: 25.0 mg/kg/injection, schedule: Q04DX003 (ip), vehicle: saline with Tween-80 90 % of control | dose: 50.0 mg/kg/injection, schedule: Q04DX003 (ip), vehicle: saline with Tween-80 96 % of control

Cc1ccc(S(=O)(=O)Oc2ccc(Cl)cc2)cc1
inactive: [1] 101 % of control | [2] 98 % of control | [3] 98 % of control

CC1(C)COC(CC2(O)CCCCCC2)=N1
inactive: [4] 101 % of control | [5] 95 % of control | [6] 96 % of control | [7] 88 % of control | dose: 400.0 mg/kg/injection, schedule: Q04DX002 (ip), vehicle: saline with Tween-80 101 % of control | [8] 93 % of control

CC1(O)CC2CCC1C2 (stereo not given)
inactive: dose: 100.0 mg/kg/injection, schedule: Q04DX003 (ip), vehicle: saline 95 % of control | dose: 200.0 mg/kg/injection, schedule: Q04DX003 (ip), vehicle: saline 90 % of control | dose: 400.0 mg/kg/injection, schedule: Q04DX003 (ip), vehicle: saline 87 % of control

COC(=O)C[As+](c1ccccc1)(c1ccccc1)c1ccccc1
inactive: [9] 97 % of control | [10] 103 % of control | [11] 91 % of control | [12] 94 % of control

COc1cccc(/C=C(\C(=O)O)c2cccc(OC)c2)c1
inactive: [13] 89 % of control | [4] 86 % of control | [6] 104 % of control

Cc1c2c(cc3c1CCC1(C)C3CCC1C(C)/C=C/C(C)C(C)C)CCC=C2 (stereo not given)
inactive: [14] 95 % of control | [15] 90 % of control | [16] 86 % of control

Nc1nc(NC(c2ccc(Cl)cc2)c2ccc(Cl)cc2)c2[nH]cnc2n1
inactive: [9] 103 % of control | [11] 101 % of control

O=S(=O)(NCCNS(=O)(=O)c1ccccc1)c1ccccc1
inactive: [14] 110 % of control | [15] 95 % of control | [16] 100 % of control

CC(CC(C(=O)O)C(=O)O)C(=O)O (stereo not given)
inactive: dose: 12.5 mg/kg/injection, schedule: Q01DX009 (ip), vehicle: water 93 % of control | dose: 25.0 mg/kg/injection, schedule: Q01DX009 (ip), vehicle: water 93 % of control | dose: 50.0 mg/kg/injection, schedule: Q01DX009 (ip), vehicle: water 93 % of control | dose: 100.0 mg/kg/injection, schedule: Q01DX009 (ip), vehicle: water 91 % of control

CCOC(=O)Nc1cc(NCCCCc2ccccc2)c([N+](=O)[O-])c(N)n1
inactive: dose: 12.5 mg/kg/injection, schedule: Q01DX001 (ip), vehicle: Klucel (hydroxypropylcellulose) (HPC) 97 % of control | dose: 25.0 mg/kg/injection, schedule: Q01DX001 (ip), vehicle: Klucel (hydroxypropylcellulose) (HPC) 103 % of control | dose: 50.0 mg/kg/injection, schedule: Q01DX001 (ip), vehicle: Klucel (hydroxypropylcellulose) (HPC) 89 % of control

CCCCCCCCC1SC1CCCCCCCCOC(=O)CCCCCCCC1SC1CCCCCCCC (stereo not given)
inactive: [17] 95 % of control | [18] 93 % of control | [19] 102 % of control

Brc1ccc(-c2ccc(Br)cc2)cc1
inactive: [17] 105 % of control | [18] 95 % of control | [19] 95 % of control

O=C(O)CC/C(=N\O)c1cccc([N+](=O)[O-])c1
inactive: [5] 102 % of control | [7] 102 % of control | [8] 98 % of control

COC(=O)C1C2CCC(C2)C1C (stereo not given)
inactive: [20] 93 % of control | [21] 104 % of control | [1] 98 % of control | [5] 90 % of control

COc1ccc(CCN)cc1O
inactive: [10] 98 % of control | [12] 98 % of control | dose: 300.0 mg/kg/injection, schedule: Q01DX001 (ip), vehicle: saline 98 % of control

COc1cc(/C=N\Nc2ccccc2[N+](=O)[O-])cc(OC)c1OC
inactive: [1] 93 % of control | [2] 103 % of control | [3] 98 % of control

CCC[CH2][Sn]1([CH2]CCC)[O]C(=O)c2c(Cl)c(Cl)c(Cl)c(Cl)c2C(=O)[O]1
inactive: dose: 5.0 mg/kg/injection, schedule: Q01DX001 (ip), vehicle: saline 101 % of control | dose: 10.0 mg/kg/injection, schedule: Q01DX001 (ip), vehicle: saline 101 % of control | dose: 20.0 mg/kg/injection, schedule: Q01DX001 (ip), vehicle: saline 109 % of control

c1cc2nc(c1)CSCCCCCCSC2
inactive: [1] 91 % of control | [2] 90 % of control | [3] 91 % of control

O=[N+]([O-])c1cccc(S(=O)(=O)SC(Cl)(Cl)Cl)c1
inactive: dose: 6.25 mg/kg/injection, schedule: Q04DX003 (ip), vehicle: saline 102 % of control | dose: 12.5 mg/kg/injection, schedule: Q04DX003 (ip), vehicle: saline 97 % of control | dose: 25.0 mg/kg/injection, schedule: Q04DX003 (ip), vehicle: saline 102 % of control

CCCCCCOc1ccc(C=Nc2ccc(CC)cc2)cc1
inactive: [5] 88 % of control | [7] 91 % of control | [8] 88 % of control

CCOC(=O)Cn1c(=O)cc(C)c2ccccc21
inactive: [5] 100 % of control | [7] 101 % of control | [8] 101 % of control

Cn1c(=O)c2c(nc(-[n+]3ccccc3)n2C)n(C)c1=O
inactive: dose: 12.5 mg/kg/injection, schedule: Q01DX005 (ip), vehicle: water 94 % of control | dose: 25.0 mg/kg/injection, schedule: Q01DX005 (ip), vehicle: water 100 % of control | dose: 50.0 mg/kg/injection, schedule: Q01DX005 (ip), vehicle: water 103 % of control | dose: 100.0 mg/kg/injection, schedule: Q01DX005 (ip), vehicle: water 103 % of control | dose: 200.0 mg/kg/injection, schedule: Q01DX005 (ip), vehicle: water 120 % of control

COc1ccc(NC(=O)Oc2ccc(C(C)(C)C)cc2)cc1
inactive: [20] 93 % of control | dose: 25.0 mg/kg/injection, schedule: Q04DX002 (ip), vehicle: saline with Tween-80 104 % of control | [21] 97 % of control | [13] 117 % of control | [1] 97 % of control | [4] 87 % of control and 93 % of control

CN(C)CCCN=Cc1cc([N+](=O)[O-])ccc1O.CN(C)CCCN=Cc1cc([N+](=O)[O-])ccc1O.[Ni+2]
inactive: dose: 6.25 mg/kg/injection, schedule: Q04DX002 (ip), vehicle: saline with Tween-80 91 % of control | dose: 12.5 mg/kg/injection, schedule: Q04DX002 (ip), vehicle: saline with Tween-80 91 % of control | [13] 93 % of control

COc1nc(-c2ccncc2)nc(N(C)C)n1
inactive: dose: 4.5 mg/kg/injection, schedule: Q04DX002 (ip), vehicle: saline 98 % of control | dose: 9.0 mg/kg/injection, schedule: Q04DX002 (ip), vehicle: saline 103 % of control

CC(CC(=O)Nc1ccc(S(=O)(=O)F)cc1)c1ccc(N2C(N)=NC(N)=NC2(C)C)cc1 (stereo not given)
inactive: dose: 12.5 mg/kg/injection, schedule: Q01DX009 (ip), vehicle: saline 109 % of control | dose: 25.0 mg/kg/injection, schedule: Q01DX009 (ip), vehicle: saline 109 % of control | dose: 50.0 mg/kg/injection, schedule: Q01DX009 (ip), vehicle: saline 113 % of control | dose: 100.0 mg/kg/injection, schedule: Q01DX009 (ip), vehicle: saline 113 % of control | dose: 100.0 mg/kg/injection, schedule: Q#A X018 (ip), vehicle: saline 116 % of control | dose: 150.0 mg/kg/injection, schedule: Q#A X018 (ip), vehicle: saline 119 % of control | dose: 200.0 mg/kg/injection, schedule: Q01DX009 (ip), vehicle: saline 113 % of control and 121 % of control | dose: 300.0 mg/kg/injection, schedule: Q01DX009 (ip), vehicle: saline 118 % of control | dose: 400.0 mg/kg/injection, schedule: Q01DX009 (ip), vehicle: saline 124 % of control

O=C(O/N=C(\CN1CCOCC1)c1ccc(Cl)cc1)c1ccccc1
inactive: [17] 86 % of control | [18] 90 % of control | [19] 94 % of control

CC(C)(C(O)c1ccccc1)[N+](=O)[O-] (stereo not given)
inactive: [14] 105 % of control | [1] 102 % of control | [15] 102 % of control | [2] 95 % of control | [16] 98 % of control | [3] 96 % of control
